The values below come from patent EP0846119B1, “THIENOPYRIMIDINE DERIVATIVES, THEIR PRODUCTION AND USE AS ENDOTHELIN ANTAGONISTS” (Takeda Chemical Industries, Ltd., priority 1995, dated 1997).

Like-named read-outs stand apart in the source and are kept apart here.

Assay [1] concerns the target T1, human endothelin-A (ETA) receptors (Homo sapiens, UniProt P25101).
T1 construct: made in house; host or cells: Sf9 insect cells (membrane fractions)
T1 sequence (P25101 21-427): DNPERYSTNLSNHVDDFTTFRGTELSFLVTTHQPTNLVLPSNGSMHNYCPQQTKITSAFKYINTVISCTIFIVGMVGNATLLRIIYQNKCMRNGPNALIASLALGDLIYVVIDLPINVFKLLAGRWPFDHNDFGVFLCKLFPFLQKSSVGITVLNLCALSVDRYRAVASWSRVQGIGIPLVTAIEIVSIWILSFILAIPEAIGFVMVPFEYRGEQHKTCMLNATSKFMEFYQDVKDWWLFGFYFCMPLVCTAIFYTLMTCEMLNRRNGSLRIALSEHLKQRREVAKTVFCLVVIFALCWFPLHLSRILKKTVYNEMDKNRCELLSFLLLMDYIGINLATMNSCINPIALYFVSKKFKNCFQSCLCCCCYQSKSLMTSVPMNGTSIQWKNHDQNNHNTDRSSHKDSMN
Briefly: Binding Test to ETA receptor expressed in an insect cell Sf9 ([125I]endothelin-1 displacement). The procedure: Binding Test to ETA receptor expressed in an insect cell Sf9:
Endothelin (ET) receptors were prepared by diluting fractions of insect cell (Sf9) membrane having human endothelin-A (ETA) receptors expressed, with an assay buffer {20 mM Tris-HCl, 2 mM EGTA (ethyleneglycol bls(2-aminoethylether) tetra acetic acid), 5 mM magnesium acetate, 0.1% BSA (bovine serum albumin), 0.03% NaN3, 0.5 mM PMSF (phenyl methyl sulfonyl fluoride), 20 µg/ml leupeptin, 4 µg/ml E-64 (products of the Peptide Institute, Japan), 1 µg/ml pepstatin, (pH 7.2)} respectively in a concentration of 1.4 µg/ml in the former case and 0.7 µg/ml in the latte case.
To 100 µl of each portion was added 5 nM[^125I] endothelin-1 (2 µl). A dimethylsulfoxide solution (3 µl) of the test compound was added thereto and incubated at 25°C for 60 minutes.
And, to determine the maximum binding amount (B0) and non-specific binding amount (NSB), lots to which a dimethyl sulfoxide solution (3 µl) or a dimethyl sulfoxide solution (3 µl) containing endothelin-1 (10^-3M) had been added, were also incubated.
These lots were supplemented with 0.05% CHAPS(3-[(3-chloroamidopropyl)dimethylammonio]-1-propanesulfonate)-assay buffer (1.5 ml), subjected to filtration through a glass fiber filter GF/F (trade name; product of Whatman Ltd. (England)), and then washed with the same buffer (1.5 ml)).
(§1) Radioactivity on the filter was counted in a gamma-counter to determine the Percent Maximum Binding (PMB) in accordance with the aforesaid calculation formula. The concentration causing PMB=50% was determined as IC50 value.

Assay [2] addresses T2, human endothelin-B (ETB) receptors (Homo sapiens, UniProt P24530).
T2 construct: made in house; host or cells: Sf9 insect cells (membrane fractions)
T2 sequence (P24530 27-442): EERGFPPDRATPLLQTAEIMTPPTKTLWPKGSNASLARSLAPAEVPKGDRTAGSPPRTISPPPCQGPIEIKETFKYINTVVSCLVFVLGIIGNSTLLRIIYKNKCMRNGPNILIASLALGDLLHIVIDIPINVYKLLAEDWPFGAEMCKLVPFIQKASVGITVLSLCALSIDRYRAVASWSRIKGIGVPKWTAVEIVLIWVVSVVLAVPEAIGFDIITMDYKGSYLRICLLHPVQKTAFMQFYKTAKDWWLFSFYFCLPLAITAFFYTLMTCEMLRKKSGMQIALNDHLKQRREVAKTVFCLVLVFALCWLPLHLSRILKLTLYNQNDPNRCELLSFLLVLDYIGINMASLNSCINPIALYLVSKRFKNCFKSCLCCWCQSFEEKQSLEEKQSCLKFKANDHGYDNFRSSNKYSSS
Briefly: Binding Test to ETB receptor expressed in an insect cell Sf9 ([125I]endothelin-1 displacement). The procedure: Binding Test to ETB receptor expressed in an insect cell Sf9:
Endothelin (ET) receptors were prepared by diluting fractions of insect cell (Sf9) membrane having human endothelin-B (ETB) receptors expressed, with an assay buffer {200 mM Tris-HCl, 2 mM EGTA (ethylenegiycol bis(2-aminoethylether) tetra acetic acid), 5 mM magnesium acetate, 0.1% BSA (bovine serum albumin), 0.03% NaN3, 0.5 mM PMSF(phenyl methyl sulfonyl fluoride), 20 µg/ml leupeptin, 4 µg/ml E-64 (products of the Peptide Institute), 1 µg/ml pepstatin, (pH 7.2)} respectively in a concentration of 1.4 µg/ml in the former case and 0.7 µg/ml in the latter case.
To 100 µl of each portion was added 5 nM[^125I] endothelin-1 (2 µl). A dimethylsulfoxide solution (3 µl) of the sample was added thereto and incubated at 25°C fpr 60 minutes.
And, to determine the maximum binding amount (B0) and non-specific binding amount (NSB), lots to which a dimethyl sulfoxide solution (3 µl) or a dimethyl sulfoxide solution (3 µl) containing endothelin-1 (10^-5M) had been added, were also incubated.
These lots were supplemented with 0.05% CHAPS(3-[(3-chloroamidopropyl)dimethylammonio]-1-propanesulfonate)-assay buffer (1.5 ml), subjected to filtration through a glass fiber filter GF/F (trade name; product of Whatman Ltd. (England)), and then washed with the same buffer (1.5 ml).
as §1

Assay [3] has as its system coronary artery where ETA is expressed. As to the kind of experiment: Inhibition Test on coronary artery where ETA is expressed (ET-1-induced constriction of ring samples). Conditions: porcine coronary artery ring, pre-treatment 30 minutes, relative to vehicle group. The procedure:
Inhibition Test on coronary artery where ETA is expressed:
3-mm ring samples for vehicle group and drug-treating group were prepared by removing fat and connective tissue from coronary artery enucleated from porcine heart and obtained from the adjacent portions thereof. The samples, hanging in Magnus tube filled with Krebs solution, were stabilized for 90 minutes under 2 g of static tension. After subjecting the samples to constriction for 10 minutes by potassium chloride (KCl) (60 mM) to obtain the maximum reaction, the samples were then washed and stabilized for 60 minutes. […]
The constriction efficiency (% KCl) of ET-1 was calculated as a relative value to KCl constriction of each sample which was regarded as 100%. Further, the inhibiting efficiency was calculated from the constriction efficiency of the drug-treating group calculated as a relative value to the constriction of the vehicle group which was regarded as 100%.

Setting [4] is: Sf9 membrane fractions, [125I]endothelin-1, 25°C, 60 minutes, concentration causing PMB=50%, read-out: IC50 value: µM Human endotherin-A receptor.
[5] abbreviates: Table 5, values recur in Table 7, read-out: Binding IC50 (µM) ETA.
The mark [6] stands for this setting: Sf9 membrane fractions, [125I]endothelin-1, 25°C, 60 minutes, concentration causing PMB=50%, read-out: IC50 value: µM Human endotherin-B receptor.
The mark [7] stands for this setting: Table 6, values recur in Table 8, read-out: Binding IC50 (µM) ETB.

The term IC50 denotes the concentration that gives 50% inhibition. For the compound `CCS(=O)(=O)NCc1c(-c2ccc(OCOC)cc2)sc2c1c(=O)n(CC(=O)O)c(=O)n2Cc1ccccc1SC` [11(16), 2,4(1H,3H)-Dioxo-6-(4-methoxymethoxyphenyl)-1-(2-methylthiobenzyl)-5-(ethanesulfonamidomethyl)thieno[2,3-d]pyrimidine-3-acetic acid], the IC50 in assay [1] (setting [4]) turned out to be 0.0061 µM; in assay [1] (setting [5]), 0.0061 µM; in assay [2] (setting [6]), 0.054 µM; in assay [2] (setting [7]), 0.054 µM. Besides, the “% inhibition (MEAN ± S.E.M.) (n=) artery (ET-1 3nM)” value in assay [3] (compound 1 µM) was 33.1 ± 8.6 (4) %.
For the compound `COCOc1ccc(-c2sc3c(c2CNS(C)(=O)=O)c(=O)n(CC(=O)O)c(=O)n3Cc2ccccc2SC)cc1` [Example 5, 2,4(1H,3H)-dioxo-6-(4-methoxymethoxyphenyl)-1-(2-methylthiobenzyl)-5-(methanesulfonamidomethyl)thieno[2,3-d]pyrimidine-3-aretic acid], the IC50 in assay [1] (setting [4]) came out at 0.011 µM; in assay [1] (setting [5]), 0.0076 µM; in assay [2] (setting [6]), 0.2 µM; in assay [2] (setting [7]) it was 0.1 µM. Moreover, the “% inhibition (MEAN ± S.E.M.) (n=) artery (ET-1 3nM)” value was 7.6 ± 37.3 (3) % in assay [3] (compound 0.1 µM) and 78.1 ± 11.9 (4) % in assay [3] (compound 1 µM).
